The results in this text go back to patent US20220354949A1, “NOVEL COMPOUNDS” (XENIOPRO GmbH, priority 2018, published 2022).

Holding throughout (assay type): cell-based
The test system of assay [1] is TT cells (human medullary thyroid carcinoma cells). Put plainly: Proliferation assay (alamarBlue) with TT cells. The settings on record: control at 40 μM. The text has this: (§1) The antiproliferative activities of compounds falling under formula (Ia), (Ib) and (Ic), respectively, were investigated on cells or cell lines originating from a disorder of the haematopoietic system, including the myeloid cell compartment and the lymphoid cell compartment (T-cells and B-cells), the neuroendocrine system, the cervix, the breast, the ovaries, the lung, the gastrointestinal tract, and the mucosal epithelium, as well as from the skin epithelium and from the muscle. To this end, HL-60 cells, NB-4 cells, HH cells, RPMI-8402 cells, TANOUE cells, TT cells, HeLa cells, MDA-MB-231 cells, FU-OV-1 cells, LOU-NH91 cells, 23132/87 cells, CAL-27 cells, BHY cells, SCC-25 cells, A-431 cells, human primary epidermal keratinocytes (HPEK), and C2C12 cells were seeded into 96-well plates suitable for fluorescence assays (CORNING #3598) at following initial cell numbers: 1000 cells per well for HL-60; 1000 cells per well for NB-4; 5000 cells per well for HH; 5000 cells per well for RPMI-8402; 1500 cells per well for TANOUE; 9000 cells per well for TT; 2000 cells per well for HeLa; 3000 cells per well for MDA-MB-231; 3000 cells per well for FU-OV-1; 4000 cells per well for LOU-NH91; 2000 cells per well for 23132/87; 2000 cells per well for CAL-27; 1500 cells per well for BHY; 1500 cells per well for SCC-25; 700 cells per well for A-431; 1000 cells per well for HPEK; 500 cells per well for C2C12. The cells were treated with compounds at indicated final concentrations (diluted from the 1000× stock-solutions in DMSO to a final DMSO concentration of 0.1% v/v in H2O (Water For Injection, WFI, Fisherscientific #10378939)) or with the empty carrier DMSO at 0.1% v/v as control for 5 days. At day 5 after starting the treatments the cells were subjected to the alamarBlue® Proliferation Assay (Bio-Rad Serotec GmbH, BUF012B) according to the protocol of the manufacturer. The readout was taken with a multi-well plate-reader in the fluorescence mode with applying a filter for excitation at 560 nm (band width 10 nm) and for emission at 590 nm (band width 10 nm). Control treatments for growth inhibition with commercial compounds such as Methotrexate (MTREX) and Resveratrol (RES) were included on every plate. Some of the test compounds of the present invention were obtained and applied as their salts. According cases are indicated in the column “Specification” in Table 55 to Table 92 and by their sum formula in Table 93.
(§2) The assays were performed in duplicate or more replicates of independent single experiments each containing a six-fold replicate for every condition. For every individual plate, the measured fluorescence intensity values of the conditions with compound treatment were normalized against the corresponding equally weighted arithmetic mean of the fluorescence intensity values of the six DMSO treated control wells in order to obtain the relative values to a baseline level of 1.0.
(§3) Two independent outlier analyses were performed according to the methods by Peirce and Chauvenet (Ross, Journal of Engineering Technology 2003, 1-12). Outliers confirmed by at least one of the methods were excluded from the calculations but not more than one value out of six per compound within a single experiment. The weighted arithmetic mean (here abbreviated as AVEw) for each compound was calculated from the normalized values over all independent replicates of the single experiments comprising the six replicates each. The corresponding standard deviation for the weighted arithmetic mean was calculated according to the method described by Bronstein et al. (Bronstein, Semendjajew, Musiol, Müihlig, Taschenbuch der Mathematik, 5th edition 2001 (German), publisher: Verlag Harri Deutsch, Frankfurt am Main and Thun) and was combined with the Gauß' error propagation associated with the performed calculation for the normalization. The resulting standard deviation is herein referred to as “combined standard deviation”. […]
A general note: Resazurin is reduced to fluorescent resorufin, in cell work by metabolically active cells.

Assay [2] deals with LOU-NH91 cells (human lung squamous cell carcinoma cells). Put plainly: Proliferation assay (alamarBlue) with LOU-NH91 cells. The settings on record: for Activity Range (weighted arithmetic mean AVEw of normalized fluorescence intensity, relative to DMSO basis level 1.0): 20 μM; for Activity Range (weighted arithmetic mean of normalized fluorescence intensity, relative to DMSO basis level 1.0): control at 40 μM.
Text: as §1, §2, §3

In assay [3] the test system is 23132/87 cells (human gastric adenocarcinoma cells). Kind of assay: Proliferation assay (alamarBlue) with 23132/87 cells. Conditions: for Activity Range (weighted arithmetic mean AVEw of normalized fluorescence intensity, relative to DMSO basis level 1.0): 20 μM; for Activity Range (weighted arithmetic mean of normalized fluorescence intensity, relative to DMSO basis level 1.0): control at 40 μM.
Text: as §1, §2, §3

The test system of assay [4] is CAL-27 cells (human tongue squamous cell carcinoma cells). Put plainly: Proliferation assay (alamarBlue) with CAL-27 cells. Conditions: for Activity Range (weighted arithmetic mean AVEw of normalized fluorescence intensity, relative to DMSO basis level 1.0): 20 μM; for Activity Range (weighted arithmetic mean of normalized fluorescence intensity, relative to DMSO basis level 1.0): control at 40 μM.
Text: as §1, §2, §3

The test system of assay [5] is A-431 cells (human epidermoid squamous cell carcinoma cells). Put plainly: Proliferation assay (alamarBlue) with A-431 cells. Conditions: for Activity Range (weighted arithmetic mean AVEw of normalized fluorescence intensity, relative to DMSO basis level 1.0): 20 μM; for Activity Range (weighted arithmetic mean of normalized fluorescence intensity, relative to DMSO basis level 1.0): control at 40 μM.
Text: as §1, §2, §3

The subject of assay [6] is human epidermal keratinocyte progenitors (HPEKp, pooled). Kind of assay: Proliferation assay (alamarBlue) with HPEKp cells. The text has this:
(§4) The antiproliferative activities of compounds falling under formula (Ia), (Ib) and (Ic), respectively, were investigated on cells or cell lines originating from a disorder of the haematopoietic system, including the myeloid cell compartment and the lymphoid cell compartment (T-cells and B-cells), the neuroendocrine system, the cervix, the breast, the ovaries, the lung, the gastrointestinal tract, and the mucosal epithelium, as well as from the skin epithelium and from the muscle. To this end, HL-60 cells, NB-4 cells, HH cells, RPMI-8402 cells, TANOUE cells, TT cells, HeLa cells, MDA-MB-231 cells, FU-OV-1 cells, LOU-NH91 cells, 23132/87 cells, CAL-27 cells, BHY cells, SCC-25 cells, A-431 cells, human primary epidermal keratinocytes (HPEK), and C2C12 cells were seeded into 96-well plates suitable for fluorescence assays (CORNING #3598) at following initial cell numbers: 1000 cells per well for HL-60; 1000 cells per well for NB-4; 5000 cells per well for HH; 5000 cells per well for RPMI-8402; 1500 cells per well for TANOUE; 9000 cells per well for TT; 2000 cells per well for HeLa; 3000 cells per well for MDA-MB-231; 3000 cells per well for FU-OV-1; 4000 cells per well for LOU-NH91; 2000 cells per well for 23132/87; 2000 cells per well for CAL-27; 1500 cells per well for BHY; 1500 cells per well for SCC-25; 700 cells per well for A-431; 1000 cells per well for HPEK; 500 cells per well for C2C12. […] The readout was taken with a multi-well plate-reader in the fluorescence mode with applying a filter for excitation at 560 nm (band width 10 nm) and for emission at 590 nm (band width 10 nm). […]
(§5) The assays were performed in duplicate or more replicates of independent single experiments each containing a six-fold replicate for every condition. For every individual plate, the measured fluorescence intensity values of the conditions with compound treatment were normalized against the corresponding equally weighted arithmetic mean of the fluorescence intensity values of the six DMSO treated control wells in order to obtain the relative values to a baseline level of 1.0. […]

The subject of assay [7] is C2C12 cells (murine myoblast cells). Put plainly: Proliferation assay (alamarBlue) with C2C12 cells.
Text: as §4, §5

Structures are written as SMILES.

On to `Oc1ccc(C=Cc2cc(O)cc(O)c2)cc1` [RES, Resveratrol], for which the “Activity Range: weighted arithmetic mean (AVEw) of normalized fluorescence intensity relative to DMSO basis level 1.0” value in assay [1] (Table 65) and in assay [1] (Table 66) was 0.7 ± 0.0 throughout. The “Activity Range (weighted arithmetic mean AVEw of normalized fluorescence intensity, relative to DMSO basis level 1.0)” value is 0.9 ± 0.1 in assay [2] (Table 73 (novel compounds)); 0.9 ± 0.1 in assay [2] (Table 74 (compounds disclosed in PCT/EP2018/054686)); 0.5 ± 0.1 in assay [3] (Table 75 (novel compounds)); 0.5 ± 0.1 in assay [3] (Table 76 (compounds disclosed in PCT/EP2018/054686)); 0.8 ± 0.1 in assay [4] (Table 77 (novel compounds)); 0.8 ± 0.1 in assay [4] (Table 78 (compounds disclosed in PCT/EP2018/054686)). Besides, the “Activity Range (weighted arithmetic mean AVEw of normalized fluorescence intensity, relative to DMSO basis level 1.0)” value in assay [5] (Table 84 (novel compounds)) and in assay [5] (Table 85 (compounds disclosed in PCT/EP2018/054686)) was 0.6 ± 0.0 each time. Moreover, the “Activity Range (weighted arithmetic mean of normalized fluorescence intensity, relative to DMSO basis level 1.0)” value in assay [2] (Table 73) is given as 0.7 ± 0.0; in assay [2] (Table 74), 0.7 ± 0.0; in assay [3] (Table 75), 0.2 ± 0.0; in assay [3] (Table 76), 0.2 ± 0.0; in assay [4] (Table 77), 0.4 ± 0.3; in assay [4] (Table 78) it was 0.4 ± 0.3. Moreover, the “Activity Range (weighted arithmetic mean of normalized fluorescence intensity, relative to DMSO basis level 1.0)” value in assay [5] (Table 84) and in assay [5] (Table 85) was 0.2 ± 0.0 in each case. The “Activity Range: weighted arithmetic mean (AVEw) of normalized fluorescence intensity, relative to DMSO basis level of 1.0” value in assay [6] (control at 20 μM) is recorded as 0.2 ± 0.0; in assay [6] (control at 40 μM), 0.2 ± 0.0; in assay [7] (compounds and controls at 20 μM), 0.8 ± 0.0; in assay [7] (control at 40 μM) it was 0.2 ± 0.1.
